# Laboratory results taken from article PMC9423655, “Huntington’s disease phenotypes are improved via mTORC1 modulation by small molecule therapy” (PLoS ONE, 2022).
# What was measured:
# N171-82Q HD mice [1] = assay: Isoprenaline cardiac stress: survival, weight, echocardiography, heart weight, cardiomyocyte area, fibrosis; format: in vivo, N171-82Q mice
# Experimental: The initial trial consisted in one week of oral dosing in 12 weeks old N171-82Q males. The chronic 6 weeks treatment (Veh n = 15, NV-5297 n = 14) took place from 6 to 12 weeks of age. The cardiac stress took place in animals from 10 to 12 weeks of age (Veh-Sal n = 9, NV-Sal n = 10, Veh-Iso n = 16, NV-Iso n = 11).
# Mice were anesthetized with 2% isoflurane and restrained on a stage with electrocardiogram (EKG) sensors. Transthoracic echocardiograms were performed using the Vevo 3100 Imaging System with a linear array MX550D transducer. Images were acquired by an experienced echocardiographer and then analyzed offline using the Vevo LAB analysis software. Parasternal long axis views and short axis views were used to assess left ventricular function. Measurements were performed to evaluate left ventricular dimensions during both systole and diastole of the cardiac cycle. The Vevo LAB left ventricle [LV] analysis tool, LV trace, was used to calculate cardiac output [CO] (heart rate ∙ stroke volume), fractional shortening [FS] (ventricle diameter at the end of the diastole–ventricle diameter at the end of the systole), ejection fraction [EF] (percentage of blood ejected by the left ventricle by heart beat), stroke volume (SV) (blood volume ejected from the left ventricle per beat), heart rate [HR] (bpm), left ventricular mass [LVmass], dimensions and volumes. Both imaging and analysis were performed by an operator blinded to the mice experimental treatment.
# Cardiomyocyte area was measured in wheat germ agglutinin-labelled heart sections as previously described. Briefly, sections were cleared and rehydrated through xylene and ethanol, then labelled with WGA conjugated to Alexa Fluor 594 (8 μg/ml, Biotium) per manufacturer’s protocol. Sections were counterstained with Hoechst stain (2 μg/ml, Thermo Scientific). High-power digital images were collected such that the entirety of the left ventricular free wall was represented. A grid was superimposed over each image in ImageJ to randomly select cardiomyocytes sectioned perpendicular to the long axis, and the area of those cells was measured manually. At least 240 cardiomyocytes were measured per section. Cardiomyocyte areas were averaged for each treatment group.
# The percent of area occupied by fibrotic tissue was calculated as previously described. Briefly, heart sections were cleared and rehydrated through xylene and ethanol. Sections were counterstained with Weigert’s haematoxylin (Sigma) per manufacturer’s protocol. Collagen was labelled by staining to equilibrium with Picrosirius red (0.1% Direct Red 80, Sigma, in saturated picric acid, Sigma). Bright field and corresponding polarized light digital images were taken such that the entirety of the left ventricular free wall was represented. Image threshold was adjusted to highlight either the entire tissue (bright field) or the fibrotic tissue (polarized) in ImageJ, and percent area occupied by fibrotic tissue was calculated from these images. Large vessels were excluded from the analysis.
# Isoprenaline (Sigma) was dissolved in sterile PBS and administered by continuous infusion using implantable mini-osmotic pumps (Alzet) at a dose of 30 mg/kg body mass/day. Pumps were filled and primed in a sterile environment and inserted under 2.5% isoflurane anesthesia into the right dorsal subcutaneous space caudal to the scapulae.
# We next tested if daily NV-5297 dosing in HD mice could enable cardiac adaptation to chronic stress. In this experiment, the NV-Sal and Veh-Sal groups have an osmotic pump implant on their back. The presence of this pump makes the echocardiography more challenging, justifying the difference to the baseline groups measurements along with the smaller sample size for this experiment. For this study, we found no significant […] and therefore we focused on the changes within the vehicle-treated groups and within the NV-5297-treated groups. […]
# N171-82Q HD mice [2] = assay: Chronic 6-week treatment: striatal volume and MSN area (DARPP-32 histology); format: in vivo; conditions: N171-82Q mice, 160 mg/kg daily 6 weeks
# Experimental: Mice were perfused with PBS, and tissues were fixed in 4% paraformaldehyde for at least 48 hours. Brains were cryoprotected in a 30% sucrose solution for 24 hours and cryosectioned to 40 μm on a Leica SM2010R microtome. Each section through the striatum was collected and floated out in 30% ethylene glycol/15% sucrose solution sequentially in a 12-well plate. Once sections had been placed in each well, deeper sequential sections were added to wells in the same order, leading to each well containing 7 sections, 480 μm apart. Hearts were bisected transversely, and the apical halves were processed and embedded in paraffin. Heart tissue was sectioned to 5 μm on a Microm HM 355S (Thermo) microtome. […]
# Striatal volume were estimated by the Cavalieri method on low-power digital images of DARPP-32-stained sections in ImageJ. A 5000 μm^2 area-per-point grid was superimposed randomly over the image, and number of points overlapping the striatum in each section (5 per animal) was counted. The volume was then calculated using the formula V = ∑p∙t∙A(p), where V = estimated volume, p = points per section, t = space between sections, and A(p) = area-per-point. […]
# Average MSN area was calculated from high-power digital images of DARPP-32-stained sections in ImageJ. […] At least 700 cells were measured per brain, and the average MSN area was determined per treatment group.
# [3] = N171-82Q mice under isoprenaline cardiac stress
smiles,measurement,setting,value
"CC(C)(C[C@H](N)C(=O)O)C(F)(F)F [NV-5297, (S)-2-amino-5,5,5-trifluoro-4,4-dimethylpentanoic acid]",mortality,"N171-82Q HD mice [1]; Iso-stressed N171-82Q mice (isoprenaline 30 mg/kg/day, 14 days), NV-5297 160 mg/kg oral daily",45%
same,body weight over trial duration,N171-82Q HD mice [1]; [3],maintained their weight
same,cardiac output from baseline,N171-82Q HD mice [1]; [3],increase
same,cardiomyocyte area,N171-82Q HD mice [1]; [3],increased
same,ejection fraction from baseline,N171-82Q HD mice [1]; [3],increased
same,fractional shortening from baseline,N171-82Q HD mice [1]; [3],increased
same,heart fibrosis,N171-82Q HD mice [1]; [3],devoid of fibrosis
same,heart mass,N171-82Q HD mice [1]; [3],elevated
same,stroke volume from baseline,N171-82Q HD mice [1]; [3],increased
same,heart rate,N171-82Q HD mice [1]; N171-82Q mice under isoprenaline cardiac stress (NV-Iso),maintain a normal heart rate
same,survival,"N171-82Q HD mice [1]; N171-82Q mice with saline implant (NV-Sal group), NV-5297 160 mg/kg oral daily",100%
same,medium spiny neuron area,N171-82Q HD mice [2],no change
same,striatal volume relative to vehicle,N171-82Q HD mice [2],significant increases
